Measurements from US12577231B2, “Androgen receptor PROTACS” (GlaxoSmithKline Intellectual Property Development Limited, priority 2023, dated 2026).

The compounds below were run against T1, Androgen Receptor protein in human LnCaP cells (Homo sapiens, UniProt P10275, T878A) (assay: Androgen Receptor Degradation Assay (Nano-Glo HiBiT, LnCaP cells)). Conditions: 18 h, HiBiT-tagged AR LnCaP cells, 18 h incubation, fitted curve asymptote maximum of degradation, read-out: mean asymptote max.
T1 construct: the AR gene was modified, using CRISPR/Cas9 editing, so the expressed AR protein included an 11 amino acid HiBiT tag; endogenous in cells; host or cells: clonal LnCaP derived cell line, endogenous AR gene edited by CRISPR/Cas9
T1 sequence (P10275 1-920 T878A): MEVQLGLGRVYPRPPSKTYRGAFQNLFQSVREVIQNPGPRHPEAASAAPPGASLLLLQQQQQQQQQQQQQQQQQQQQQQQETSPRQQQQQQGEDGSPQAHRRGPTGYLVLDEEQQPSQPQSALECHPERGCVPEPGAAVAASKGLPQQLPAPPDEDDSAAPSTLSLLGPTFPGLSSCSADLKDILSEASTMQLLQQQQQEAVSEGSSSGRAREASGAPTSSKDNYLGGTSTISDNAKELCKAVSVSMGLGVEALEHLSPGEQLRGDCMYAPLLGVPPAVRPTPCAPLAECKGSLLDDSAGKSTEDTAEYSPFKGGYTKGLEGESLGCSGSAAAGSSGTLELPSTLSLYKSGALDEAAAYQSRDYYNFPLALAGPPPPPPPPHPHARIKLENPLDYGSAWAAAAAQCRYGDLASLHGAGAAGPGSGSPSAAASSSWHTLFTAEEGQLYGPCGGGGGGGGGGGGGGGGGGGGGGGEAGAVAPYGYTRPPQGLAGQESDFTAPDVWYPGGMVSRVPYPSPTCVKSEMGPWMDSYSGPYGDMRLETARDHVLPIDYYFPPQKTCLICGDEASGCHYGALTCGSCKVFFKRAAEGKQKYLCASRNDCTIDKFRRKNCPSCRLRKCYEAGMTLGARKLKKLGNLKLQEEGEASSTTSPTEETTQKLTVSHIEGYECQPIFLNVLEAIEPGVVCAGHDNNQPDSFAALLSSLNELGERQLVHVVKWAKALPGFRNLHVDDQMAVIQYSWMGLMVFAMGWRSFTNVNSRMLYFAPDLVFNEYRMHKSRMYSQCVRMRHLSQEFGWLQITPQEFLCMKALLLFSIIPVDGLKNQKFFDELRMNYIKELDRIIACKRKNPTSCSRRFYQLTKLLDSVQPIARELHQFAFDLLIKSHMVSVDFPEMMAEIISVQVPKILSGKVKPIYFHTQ
Type: cell-based
Experimental: Degradation of Androgen Receptor protein in human LnCaP cells treated with PROTACs was quantified using the Nano-Glo® HiBiT Lytic Detection System (Promega) in 384 well assay plate format. A clonal LnCaP derived cell line was first established in which the AR gene was modified, using CRISPR/Cas9 editing, so the expressed AR protein included an 11 amino acid HiBiT tag at its amino-terminus. 10 mM DMSO stock solutions of PROTACs were prepared and diluted across an 11 concentration, 3 fold increment range, and 25 nL dispensed into a white opaque bottomed 384 well assay plate (Thermofisher) using an acoustic ECHO dispenser (Labcyte). Cells were grown in cell culture medium (RPMI 1640 supplemented with 15% FBS, penicillin 50U/mL and streptomycin 50 ug/mL (Thermofisher)). For the assay, cells were detached from flask and resuspended with assay medium (FluoroBrite™ DMEM supplemented with 10% heat inactivated FBS, penicillin 50U/mL and streptomycin 50 ug/mL (Thermofisher)). The cell suspension was centrifuged at 400 g for 5 min and the pellet resuspended in assay medium. 25 μL of cell suspension containing 10,000 cells was dispensed into each well of the assay plate containing a serial dilution of test compounds, which was then incubated for 18 h at 37° C./5% CO2. Control wells were included on each assay plate, with assay medium without cells being the no AR remaining 100% effect control, and cells treated with DMSO vehicle only, without PROTAC, the 0% effect control. 25 μL of Nano-Glo® HiBiT lysis buffer supplemented with LgBiT protein and Nano-Glo® substrate (Promega) was added to each well and the plate shaken at 500 rpm for 10 min at room temperature. The intensity of luminescence was measured using a PHERAstar microplate reader (BMG Labtech) and the % AR protein remaining in each well calculated by normalising the raw luminescence value to the above control wells. Parameters corresponding to the potency and efficacy estimates of the PROTACs were obtained from these normalised luminescence values using software (IDBS ActivityBase). These included the DC50 (concentration at which 50% of protein was degraded in M) and the Dmax (maximal degradation, in %) estimates. Two versions of the DC50, called relative DC50 and absolute DC50, were generated. These are the inflection point of a fitted 4 parameter sigmoidal response curve and the interpolated concentration of PROTAC corresponding to 50% of the protein being degraded, respectively. The corresponding pDC50 is reported as −log10(relative […]). The Dmax parameter was the maximum experimentally observed degradation and the asymptote max parameter the fitted response curve asymptote maximum.

Dmax, ≥ 50%:
CC1(C)[C@H](NC(=O)c2ccc(N3CCC(CN4CCC(n5ncc6c(N7CCC(=O)NC7=O)cccc65)CC4)CC3)c(F)c2)C(C)(C)[C@H]1Oc1cnc(C#N)c(Cl)c1 [Example 3, N-((1r,3r)-3-((5-Chloro-6-cyanopyridin-3-yl)oxy)-2,2,4,4-tetramethylcyclobutyl)-4-(4-((4-(4-(2,4-dioxotetrahydropyrimidin-1(2H)-yl)-1H-indazol-1-yl)piperidin-1-yl)methyl)piperidin-1-yl)-3-fluorobenzamide]
CC1(C)[C@H](NC(=O)c2ccc(N3CCC(CN4CCC(n5ncc6c(N7CCC(=O)NC7=O)cccc65)CC4)CC3)c(F)c2)C(C)(C)[C@H]1Oc1ccc(C#N)c2c1CCCO2 [Example 8, N-((1r,3r)-3-((8-Cyanochroman-5-yl)oxy)-2,2,4,4-tetramethylcyclobutyl)-4-(4-((4-(4-(2,4-dioxotetrahydropyrimidin-1(2H)-yl)-1H-indazol-1-yl)piperidin-1-yl)methyl)piperidin-1-yl)-3-fluorobenzamide]
CC1(C)[C@H](NC(=O)c2ccc(N3CCC(CN4CCC(n5ncc6c(N7CCC(=O)NC7=O)c(F)ccc65)CC4)CC3)c(F)c2)C(C)(C)[C@H]1Oc1ccc(C#N)c(Cl)c1 [Example 13, N-((1r,3r)-3-(3-Chloro-4-cyanophenoxy)-2,2,4,4-tetramethylcyclobutyl)-4-(4-((4-(4-(2,4-dioxotetrahydropyrimidin-1(2H)-yl)-5-fluoro-1H-indazol-1-yl)piperidin-1-yl)methyl)piperidin-1-yl)-3-fluorobenzamide]
COc1cc(O[C@H]2C(C)(C)[C@H](NC(=O)c3ccc(N4CCC(CN5CCC(n6ncc7c(N8CCC(=O)NC8=O)cccc76)CC5)CC4)cc3)C2(C)C)ccc1C#N [Example 15, N-((1r,3r)-3-(4-Cyano-3-methoxyphenoxy)-2,2,4,4-tetramethylcyclobutyl)-4-(4-((4-(4-(2,4-dioxotetrahydropyrimidin-1(2H)-yl)-1H-indazol-1-yl)piperidin-1-yl)methyl)piperidin-1-yl)benzamide]
COc1cc(O[C@H]2C(C)(C)[C@H](NC(=O)c3ccc(N4CCC(CN5CC[C@@H](n6ncc7c(N8CCC(=O)NC8=O)cccc76)[C@@H](F)C5)CC4)c(F)c3)C2(C)C)ccc1C#N [Example 27, N-((1r,3r)-3-(4-Cyano-3-methoxyphenoxy)-2,2,4,4-tetramethylcyclobutyl)-4-(4-(((3,4R)-4-(4-(2,4-dioxotetrahydropyrimidin-1(2H)-yl)-1H-indazol-1-yl)-3-fluoropiperidin-1-yl)methyl)piperidin-1-yl)-3-fluorobenzamide]
CC1(C)[C@H](NC(=O)c2ccc(N3CCC(CN4CCC(n5ccc6c(N7CCC(=O)NC7=O)ncnc65)CC4)CC3)cc2)C(C)(C)[C@H]1Oc1ccc(C#N)c2ncccc12 [Example 28, N-((1r,3r)-3-((8-Cyanoquinolin-5-yl)oxy)-2,2,4,4-tetramethylcyclobutyl)-4-(4-((4-(4-(2,4-dioxotetrahydropyrimidin-1(2H)-yl)-7H-pyrrolo[2,3-d]pyrimidin-7-yl)piperidin-1-yl)methyl)piperidin-1-yl)benzamide]
CC1(C)[C@H](NC(=O)c2cc(F)c(N3CCC(CN4CCC(n5ncc6c(N7CCC(=O)NC7=O)cccc65)CC4)CC3)c(F)c2)C(C)(C)[C@H]1Oc1ccc(C#N)c2ncccc12 [Example 30, N-((1r,3r)-3-((8-Cyanoquinolin-5-yl)oxy)-2,2,4,4-tetramethylcyclobutyl)-4-(4-((4-(4-(2,4-dioxotetrahydropyrimidin-1(2H)-yl)-1H-indazol-1-yl)piperidin-1-yl)methyl)piperidin-1-yl)-3,5-difluorobenzamide]
CC1(C)[C@H](NC(=O)c2ccc(N3CCC(CN4CCC(n5ccc6c(N7CCC(=O)NC7=O)cccc65)CC4)CC3)c(F)c2)C(C)(C)[C@H]1Oc1ccc(C#N)c2ncccc12 [Example 31, N-((1r,3r)-3-((8-Cyanoquinolin-5-yl)oxy)-2,2,4,4-tetramethylcyclobutyl)-4-(4-((4-(4-(2,4-dioxotetrahydropyrimidin-1(2H)-yl)-1H-indol-1-yl)piperidin-1-yl)methyl)piperidin-1-yl)-3-fluorobenzamide]
CC1(C)[C@H](NC(=O)c2ccc(N3CCC(CN4CCC(n5ccc6c(N7CCC(=O)NC7=O)cc(F)cc65)CC4)CC3)c(F)c2)C(C)(C)[C@H]1Oc1ccc(C#N)c2ncccc12 [Example 32, N-((1r,3r)-3-((8-Cyanoquinolin-5-yl)oxy)-2,2,4,4-tetramethylcyclobutyl)-4-(4-((4-(4-(2,4-dioxotetrahydropyrimidin-1(2H)-yl)-6-fluoro-1H-indol-1-yl)piperidin-1-yl)methyl)piperidin-1-yl)-3-fluorobenzamide]
CC1(C)[C@H](NC(=O)c2ccc(N3CC[C@@H](CN4CCC(n5ncc6c(N7CCC(=O)NC7=O)cccc65)CC4)C3)c(F)c2)C(C)(C)[C@H]1Oc1ccc(C#N)c2ncccc12 [Example 33, N-((1r,3S)-3-((8-Cyanoquinolin-5-yl)oxy)-2,2,4,4-tetramethylcyclobutyl)-4-((S)-3-((4-(4-(2,4-dioxotetrahydropyrimidin-1(2H)-yl)-1H-indazol-1-yl)piperidin-1-yl)methyl)pyrrolidin-1-yl)-3-fluorobenzamide]
CC1(C)[C@H](NC(=O)c2ccc(N3CC[C@H](CN4CCC(n5ncc6c(N7CCC(=O)NC7=O)cccc65)CC4)C3)c(F)c2)C(C)(C)[C@H]1Oc1ccc(C#N)c2ncccc12 [Example 34, N-((1r,3R)-3-((8-Cyanoquinolin-5-yl)oxy)-2,2,4,4-tetramethylcyclobutyl)-4-((R)-3-((4-(4-(2,4-dioxotetrahydropyrimidin-1(2H)-yl)-1H-indazol-1-yl)piperidin-1-yl)methyl)pyrrolidin-1-yl)-3-fluorobenzamide]
CC1(C)[C@H](NC(=O)c2ccc(N3CCC(CN4CC[C@@H](n5ncc6c(N7CCC(=O)NC7=O)cccc65)C4)CC3)c(F)c2)C(C)(C)[C@H]1Oc1ccc(C#N)c2ncccc12 [Example 36, N-((1r,3r)-3-((8-Cyanoquinolin-5-yl)oxy)-2,2,4,4-tetramethylcyclobutyl)-4-(4-(((R)-3-(4-(2,4-dioxotetrahydropyrimidin-1(2H)-yl)-1H-indazol-1-yl)pyrrolidin-1-yl)methyl)piperidin-1-yl)-3-fluorobenzamide]
CC1(C)[C@H](NC(=O)c2ccc(N3CCC(CN4CC[C@H](n5ncc6c(N7CCC(=O)NC7=O)cccc65)C4)CC3)c(F)c2)C(C)(C)[C@H]1Oc1ccc(C#N)c2ncccc12 [Example 37, N-((1r,3r)-3-((8-Cyanoquinolin-5-yl)oxy)-2,2,4,4-tetramethylcyclobutyl)-4-(4-(((S)-3-(4-(2,4-dioxotetrahydropyrimidin-1(2H)-yl)-1H-indazol-1-yl)pyrrolidin-1-yl)methyl)piperidin-1-yl)-3-fluorobenzamide]
